Conditions: pH 7.4

Row | logD | SMILES
1 | 0.35 | NS(=O)(=O)c1cc2cc(C(=O)NCC(O)CO)sc2s1 (configuration not stated)
2 | -0.15 | CS(=O)CCNC(=O)c1cc2cc(S(N)(=O)=O)sc2s1 (configuration not stated)

Reference: the SangsterLogP compilation
